Experiments:
A549 [1] = assay: Decrease in cell cycle associated protein expression in human A549 cells assessed as fold change in cyclin D1 expression at 10 uM after 36 hrs by Western blot analysis (reference value: 0.68); type: functional
[2] = Increase in recruitment of […] p27KIP1 to CDK2 in human A549 cells assessed as fold change at 10 uM incubated for 12 hrs by immunoprecipitation/immunoblot analysis (reference value: 0.43); type: functional
CYP1A2 = target: T1, CYP1A2 (Homo sapiens, UniProt P05177); assay: Inhibition of human CYP1A2 assessed as residual activity at 10 uM measured after 15 mins relative to control; type: ADME; details: read-out: Activity
T1 sequence (P05177 whole entry): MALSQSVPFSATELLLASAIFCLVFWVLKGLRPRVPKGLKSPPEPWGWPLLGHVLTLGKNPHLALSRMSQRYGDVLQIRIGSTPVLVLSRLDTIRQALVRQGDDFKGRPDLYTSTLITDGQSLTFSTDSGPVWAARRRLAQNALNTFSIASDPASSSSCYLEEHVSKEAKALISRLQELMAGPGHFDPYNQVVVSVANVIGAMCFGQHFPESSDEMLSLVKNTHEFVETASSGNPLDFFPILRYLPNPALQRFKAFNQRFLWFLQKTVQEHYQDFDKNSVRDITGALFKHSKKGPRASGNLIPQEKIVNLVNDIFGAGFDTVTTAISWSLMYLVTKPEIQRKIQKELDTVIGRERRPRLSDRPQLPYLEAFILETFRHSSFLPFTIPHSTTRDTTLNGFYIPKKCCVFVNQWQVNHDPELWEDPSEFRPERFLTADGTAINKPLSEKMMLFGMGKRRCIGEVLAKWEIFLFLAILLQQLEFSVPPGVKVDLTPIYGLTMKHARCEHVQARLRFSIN

A549 [3] = assay: Potentiation of cisplatin-induced cell cycle arrest in human A549 cells assessed as accumulation at S phase at 5 uM in presence of cisplatin after 48 hrs by flow cytometric analysis (Rvb =15.8%); type: functional
A549 [4] = assay: Decrease in cell cycle associated protein expression in human A549 cells assessed as reduction in cyclin D2 expression at 10 uM by Western blot analysis; type: functional, cell-based; details: time 6-48 hrs, TDE = time-dependent effect
A549 [5] = assay: Decrease in cell cycle associated protein expression in human A549 cells assessed as reduction in CDK6 expression after 48 hrs by Western blot analysis; type: functional, cell-based; details: dose 2.5-10 µM
A549 [6] = assay: Potentiation of etoposide-induced cell cycle arrest in human A549 cells assessed as accumulation at sub G1 phase at 2.5 uM in presence of etoposide after 48 hrs by flow cytometric analysis (Rvb =33 %); type: functional
A549 [7] = assay: Decrease in cell cycle associated protein expression in human A549 cells assessed as fold change in CDK4 expression at 2.5 uM after 48 hrs by Western blot analysis (reference value: 0.62); type: functional
A549 [8] = assay: Decrease in cell cycle associated protein expression in human A549 cells assessed as fold change in cyclin D1 expression at 10 uM after 12 hrs by Western blot analysis (reference value: 0.68); type: functional
A549 [9] = assay: Decrease in cell cycle associated protein expression in human A549 cells assessed as fold change in cyclin D2 expression at 10 uM after 12 hrs by Western blot analysis (reference value: 0.77); type: functional
A549 [10] = assay: Decrease in cell cycle associated protein expression in human A549 cells assessed as reduction in cyclin D3 expression at 10 uM by Western blot analysis; type: functional, cell-based; details: time 6-48 hrs, TDE = time-dependent effect
A549 [11] = assay: Decrease in cell cycle associated protein expression in human A549 cells assessed as fold change in CDK2 expression at 10 uM after 6 hrs by Western blot analysis (reference value: 0.79); type: functional
A549 [12] = assay: Decrease in cell cycle associated protein expression in human A549 cells assessed as fold change in cyclin D1 expression at 10 uM after 24 hrs by Western blot analysis (reference value: 0.68); type: functional
A549 [13] = assay: Decrease in cell cycle associated protein expression in human A549 cells assessed as fold change in cyclin D3 expression at 5 uM after 48 hrs by Western blot analysis (reference value: 0.73); type: functional
A549 [14] = assay: Upregulation of p27KIP1 protein expression in human A549 cells at 10 uM by Western blot analysis; type: functional, cell-based; details: time 6-48 hrs, TDE = time-dependent effect
A549 [15] = assay: Induction of apoptosis in human A549 cells assessed as early apoptotic cells at 10 uM incubated for 48 hrs by AnnexinV-FITC/propidium iodide staining based flow cytometry (reference value: 1.2%); type: functional
A549 [16] = assay: Potentiation of cisplatin-induced cell cycle arrest in human A549 cells assessed as accumulation at S phase at 2.5 uM in presence of cisplatin after 48 hrs by flow cytometric analysis (Rvb =15.8%); type: functional
A549 [17] = assay: Decrease in cell cycle associated protein expression in human A549 cells assessed as reduction in CDK4 expression after 48 hrs by Western blot analysis; type: functional, cell-based; details: dose 2.5-10 µM
A549 [18] = assay: Induction of cell cycle arrest in human A549 cells assessed as accumulation at sub G1 phase at 10 uM after 48 hrs by flow cytometric analysis (reference value: 1.9%); type: functional
A549 [19] = assay: Decrease in cell cycle associated protein expression in human A549 cells assessed as fold change in CDK2 expression at 10 uM after 24 hrs by Western blot analysis (reference value: 0.79); type: functional
CYP2C9 = CYP2C9 (Homo sapiens, UniProt P11712); assay: Inhibition of human CYP2C9 assessed as residual activity at 10 uM measured after 15 mins relative to control; type: ADME; details: read-out: Activity
Chain of CYP2C9 (P11712 whole entry): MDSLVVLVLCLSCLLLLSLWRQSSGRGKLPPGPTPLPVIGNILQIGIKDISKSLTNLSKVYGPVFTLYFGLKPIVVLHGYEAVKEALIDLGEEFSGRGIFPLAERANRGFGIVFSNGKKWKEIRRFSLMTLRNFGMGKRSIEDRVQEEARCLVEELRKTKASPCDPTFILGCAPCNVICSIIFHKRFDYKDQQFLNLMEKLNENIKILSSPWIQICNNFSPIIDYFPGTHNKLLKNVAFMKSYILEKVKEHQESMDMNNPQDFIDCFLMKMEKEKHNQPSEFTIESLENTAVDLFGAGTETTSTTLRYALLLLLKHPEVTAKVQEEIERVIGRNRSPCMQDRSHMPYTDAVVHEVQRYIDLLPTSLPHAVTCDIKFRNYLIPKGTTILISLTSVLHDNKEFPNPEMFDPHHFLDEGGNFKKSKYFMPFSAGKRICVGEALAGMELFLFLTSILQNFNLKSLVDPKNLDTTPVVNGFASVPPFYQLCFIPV

A549 [20] = assay: Potentiation of cisplatin-induced cell cycle arrest in human A549 cells assessed as accumulation at sub G1 phase at 5 uM in presence of cisplatin after 48 hrs by flow cytometric analysis (reference value: 17%); type: functional
[21] = Metabolic stability in human plasma assessed as parent compound remaining at 10 uM measured after 30 mins; type: ADME, cell-free; details: read-out: Stabilty
A549 [22] = assay: Decrease in cell cycle associated protein expression in human A549 cells assessed as fold change in cyclin D2 expression at 10 uM after 36 hrs by Western blot analysis (reference value: 0.77); type: functional
A549 [23] = assay: Potentiation of etoposide-induced cell cycle arrest in human A549 cells assessed as accumulation at G1 phase at 2.5 uM in presence of etoposide after 48 hrs by flow cytometric analysis (reference value: 36%); type: functional
A549 [24] = assay: Decrease in cell cycle associated protein expression in human A549 cells assessed as fold change in cyclin D3 expression at 10 uM after 48 hrs by Western blot analysis (reference value: 0.73 to 1.09); type: functional
A549 [25] = assay: Decrease in cell cycle associated protein expression in human A549 cells assessed as fold change in cyclin D1 expression at 10 uM after 48 hrs by Western blot analysis (reference value: 0.39 to 0.68); type: functional
[26] = Protein binding in rat plasma at 10 uM after 4 hrs; type: ADME, cell-free; details: read-out: PPB (converted)
A549 [27] = assay: Decrease in cell cycle associated protein expression in human A549 cells assessed as fold change in CDK4 expression at 10 uM after 36 hrs by Western blot analysis (reference value: 0.87); type: functional
A549 [28] = assay: Potentiation of etoposide-induced cell cycle arrest in human A549 cells assessed as accumulation at G1 phase at 10 uM in presence of etoposide after 48 hrs by flow cytometric analysis (reference value: 36%); type: functional

SMILES: CN(C)C(=O)NCCCN(C)C1=Nc2ccccc2C(CC(=O)NCc2ccc(F)cc2)N1c1ccc(C2CCCCC2)cc1 (stereo not given)
- fold change (FC) (A549 [1]): 0.62
- fold change (FC) [2]: 0.6
- activity at 0.25 h, 10 µM (CYP1A2): 59.2%
- Activity (A549 [3]): 16.8%
- Activity (A549 [4]): Tde
- Activity (A549 [5]): Dose-dependent effect
- Activity (A549 [6]): 36.9%
- fold change (FC) (A549 [7]): 0.71
- fold change (FC) (A549 [8]): 0.35
- fold change (FC) (A549 [9]): 0.36
- Activity (A549 [10]): Tde
- fold change (FC) (A549 [11]): 0.91
- fold change (FC) (A549 [12]): 0.37
- fold change (FC) (A549 [13]): 0.77
- Activity (A549 [14]): Tde
- Activity (A549 [15]): 8.8%
- Activity (A549 [16]): 19.2%
- Activity (A549 [17]): Dose-dependent effect
- Activity (A549 [18]): 4%
- fold change (FC) (A549 [19]): 0.61
- activity at 0.25 h, 10 µM (CYP2C9): 89.8%
- Activity (A549 [20]): 24.8%
- remaining at 0.5 h, 10 µM [21]: 113%
- fold change (FC) (A549 [22]): 0.61
- Activity (A549 [23]): 34.3%
- fold change (FC) (A549 [24]): 0.55
- fold change (FC) (A549 [25]): 0.55
- fraction unbound at 4 h, 10 µM [26]: < 0.01
- fold change (FC) (A549 [27]): 0.79
- Activity (A549 [28]): 7.9%

— ChEMBL document CHEMBL4715696, “In vitro synergistic anticancer activity of the combination of T-type calcium channel blocker and chemotherapeutic agent in A549 cells” (Bioorg Med Chem Lett, 2016)
